Experimental data: patent US20100105673A1, “SUBSTITUTED AMINOFURANONES AND THEIR USE” (priority 2006, published 2010)

target: T1, HIV-1 protease wild type protein (Human immunodeficiency virus type 1 group M subtype B, UniProt P04585); assay: Biochemical Protease Assay
T1 construct: 20 μl of 0.2−1 nM HIV-1 protease wild type or mutant protein; purchased AscoProt Biotech, Prague, Czech Republic
Method: For the determination of their in vitro activity on HIV protease the test substances are dissolved in DMSO and serially diluted. In each case 0.5 μl of substance dilution, 20 μl of 0.2−1 nM HIV-1 protease wild type or mutant protein (e.g. multiresistant isolate “35513”: L10I, I15V, L19I, K20R, E35D, M36I, R41K, I54V, L63P, H69K, A71V, T74P, I84V, L89M, L90M, 193L, AscoProt Biotech, Prague, Czech Republic) in buffer 1 (50 mM sodium acetate pH 4.9, 0.02% BSA, 0.1 mM EDTA, 0.5 mM DTT) and 20 μl of 8 μM substrate (M1865 from Bachem, Bubendorf, Switzerland; Matayoshi et al., Science 1990, 247, 954-8) in buffer 1 are added successively to a 384 well microtiter plate (Greiner, Frickenhausen, Germany), incubated for 60-180 minutes at 32° C. and the fluorescence is measured (e.g. Tecan Safire, 340 nm extinction, 520 nm emission). IC50 values are determined by graphical plotting of the substance concentration against the percentage inhibition.

**Q.** Which IC50 does the source give for `Cc1cc(-c2cccc(S(C)(=O)=O)c2)c(Cl)cc1C1=C(N)[C@@]2(CCCN(CC(=O)NCc3ccccc3)C2)OC1=O` (single isomer, unassigned) [Example 82] here?
**A.** 11 nM

**Q.** For `Cc1cc(-c2cccc(S(C)(=O)=O)c2)c(Cl)cc1C1=C(N)[C@@]2(CCCN(CC(=O)NCc3cccs3)C2)OC1=O` (single isomer, unassigned) [Example 84], which IC50 is on record?
**A.** 2.5 nM

**Q.** `Cc1cc(-c2cccc(O)c2)c(Cl)cc1C1=C(N)C2(CCCN(CC(=O)NCc3ccccc3)C2)OC1=O` (stereo not drawn) [Example 27] was tested. Which IC50 did it give?
**A.** 14 nM

**Q.** Which IC50 does the source give for `CCC(C)CNC(=O)CN1CCCC2(C1)OC(=O)C(c1cc(Cl)c(-c3cccc(S(C)(=O)=O)c3)cc1C)=C2N` (stereo not drawn) [Example 79] here?
**A.** 85 nM

**Q.** For `Cc1cc(-c2cccc(NS(=O)(=O)CCN3CCOCC3)c2)c(Cl)cc1C1=C(N)C2(CCCCC2)OC1=O` [Example 20], which IC50 is on record?
**A.** 510 nM

**Q.** For `Cc1cc(-c2cccc(S(C)(=O)=O)c2)c(Cl)cc1C1=C(N)C2(CCCN(CC(=O)NCc3cccc(F)c3F)C2)OC1=O` (stereo not drawn) [Example 51], which IC50 is on record?
**A.** 2.6 nM
